These are literature values, as cited in publication PMC4907212, “Mucosal and blood-brain barrier transport kinetics of the plant N-alkylamide spilanthol using in vitro and in vivo models” (BMC Complementary and Alternative Medicine, 2016).

On the set-up of the series: method as in PMID 19399718. To be noted: plasma, oral gavage in rats; cited from earlier work.

Consider “dodeca-2E,4E,8E,10E/Z-tetraenoic acid isobutylamides”, for which the elimination half-life was 1.2 h.
